# Reference: patent US20230364052A1, “COMPOSITION AND METHOD FOR TREATING AUTISM” (ZELIRA THERAPEUTICS OPERATIONS PTY LTD, priority 2017, published 2023)
# System: patients with ASD diagnosis according to DSM-5
# Assay: Retrospective review of ASD patients treated with Cannabis extracts; clinical response by CGI-I Scale
# Type: in vivo
# Conditions: 66.6% of the ASD patients, treated before Cannabis therapy
# Procedure: A retrospective review of patients seen between June 2016 and March 2017 with ASD diagnosis according to DSM-5 (persistent deficits in social communication and interaction; restricted, repetitive patterns of behaviour, interests, or activities; symptoms present in the early developmental period; cause clinically significant impairment in social, occupational, or other areas of current functioning; not explained by intellectual disability nor global developmental delay) who were treated with Cannabis extracts for at least a 12-week period was completed. Demographic/clinical data, neuroimaging/EEG studies, vision, audition, genetic, and metabolic tests, parental/school/neuropsychological reports were reviewed.
# The patients were administered with the cannabinoids sublingually (sublingual drops or “rice grain” method—see Example 1) twice daily (BID) for the duration of their treatment. The Cannabis extracts were obtained from the Moby Dick, Sharck, Durga mata or Nebula strains of Cannabis. For 10 out of the 21 patients included in the study, the total daily dosage of CBD and THC (measured by HPLC) and CBD:THC ratio were calculated and discussed further below.
# The initial severity of symptoms presenting in the patients was assessed according to the criteria provided in the DSM-5, and are shown in FIG. 3.
# The selected patients consisted of twenty (20) children and 1 adult (Mean age: 9 years, 10 month (range: 26 mo-22 yo), 15 males).
# Mean follow-up after starting Cannabis therapy was 7.6 mo (range: 3-12 months). According to Cannabis strain, 71.5% of patients received balanced CBD:THC extracts; 19.0% high-CBD (e.g. Table 3; Formulations 1-3), and 9.5% high-THC extracts (e.g. Table 3; Formulation 6). The administered daily dose of CBD and THC was measured in 10 patients; 9 of them received […] and one high-THC extracts (Tables 2 and 3).
row,SMILES,response to previous treatment
1,O=C1CCc2ccc(OCCCCN3CCN(c4cccc(Cl)c4Cl)CC3)cc2N1 [aripiprazole],without good response and/or with undesirable adverse events
2,COC(=O)C(c1ccccc1)C1CCCCN1 (stereo not shown) [methylphenidate],without good response and/or with undesirable adverse events
3,OCCOCCN1CCN(C2=Nc3ccccc3Sc3ccccc32)CC1 [quetiapine],without good response and/or with undesirable adverse events
4,Cc1nc2n(c(=O)c1CCN1CCC(c3noc4cc(F)ccc34)CC1)CCCC2 [risperidone],without good response and/or with undesirable adverse events
